PubChem BioAssay AID1963834 (Molecular Pharmacology Branch, DTP, NCI, 2024)
pIC50: −log10 of the molar value.

System: 873145-292-R-J1-PDC complex spheroid viability
Test: Anticancer human tumor 873145-292-R-J1-PDC patient-derived renal clear cell carcinoma cell line growth inhibition [POLQ]
Settings: for pIC50: curve of first compound; for viability, T/C: stronger effect = lower value
Experimental: Multicellular complex tumor spheroid response to Polymerase (POL) inhibitors (novobiocin, ART-558, RP6685) in combination with a variety of drugs and investigational agents in selected tumor cell lines
The POL inhibitors (novobiocin, ART-558, and RP6685) were evaluated both individually and in combination with standard of care and investigational anticancer small molecules within a complex spheroid model of solid tumors. . Complex spheroids include a stromal component modeled by human endothelial cells (HUVEC) and fibroblasts modeled by human mesenchymal stem cells (MSCs). The concentration ranges selected for each drug and investigational agent were based upon clinically achievable concentrations if the clinical Cmax of the agent was known.
Compounds. The drugs and investigational agents: novobiocin (NSC847541), ART-558 (NSC835418), RP-6685 (NSC848927), peposertib (NSC802822), ceralasertib (NSC780249), elimusertib (NSC800525), camonsertib (NSC841442), AZD-1390 (NSC803789), olaparib (NSC753686), talazoparib (NSC767125), rucaparib (NSC756644), sotorasib (NSC818433), MRTX-1133 (NSC836407), SN-38 (NSC673596), topotecan (NSC609699), epotoside (NSC141540), doxorubicin (NSC123127), gemcitabine (NSC613327), 5-fluorouracil (NSC19893), paclitaxel (NSC125973), vemurafenib (NSC761431), MSA-2 (NSC828583), SN-011 (NSC837082), adavosertib (NSC754352), prexasertib (NSC758257), carboplatin (NSC241240) and oxaliplatin (NSC266046), were obtained from the National Cancer Institute (NCI) Developmental Therapeutics Program Chemical Repository (21). The FDA-approved anticancer drug set is available from the Developmental Therapeutics Program at https://dtp.cancer.gov/organization/dscb/obtaining/. […] The stock solutions were prepared in dimethyl sulfoxide (DMSO, Sigma-Aldrich, St. Louis, MO, cat. D2650), except for the platinum compounds which were prepared in saline (Quality Biological, Gaithersburg, MD, cat. 114-055-101), at 800-fold the tested concentration and stored at -70 degrees C prior to their use. All drugs and investigational agents were tested over a range starting from a high concentration at or near the clinical Cmax and decreasing in half-log increments. If the clinical Cmax for an agent had not been determined, the highest concentration tested was 10 microM, except for SN-38, which was tested at a high concentration of 1 microM.
Cell Culture. All cells were maintained in an incubator at 37 degrees C and 5% CO2 with 95% humidity. The PDC lines were cultured according to standard operating procedures established by the NCI PDMR (https://pdmr.cancer.gov). Table 3 of the manuscript, lists the cell lines along with the number of the three cell types plated to form the mct-spheroids and media for tumor cell growth. After thawing, all PDC lines, except 997537-175-T-J1-PDC and 415267-285-R-J2-PDC, were cultured in Matrigel-coated flasks prepared with a working solution of 1X Ham's F-12 nutrient mix, without supplementation (Thermo Fisher Scientific, cat. 11765054), 100 U/mL penicillin-streptomycin (Thermo Fisher Scientific, cat. 15140122), and 2.5% Matrigel (Corning Inc., Corning, NY, cat. 354248) for the first three passages. The two PDC lines 997537-175-T-J1-PDC and 415267-285-R-J2-PDC were cultured on uncoated flasks. The 857933-349-R-J2-PDC line was cultured in 6C/Colon 1B media containing advanced DMEM/F-12 (Thermo Fisher Scientific, cat. 12634028), 10 mM HEPES (Thermo Fisher Scientific, cat. 15630080), 1X GlutaMAX supplement (Thermo Fisher Scientific, cat. 35050061), 0.1 mg/mL primocin (InvivoGen, San Diego, CA, cat. ant-pm-2), 10% defined fetal bovine serum, heat inactivated (HyClone Laboratories Inc., Logan, UT, cat. SH30070.03HI), 50% L-WRN conditioned media (ATCC, cat. CRL-3276), 1.25 mM N-Acetyl-L-cysteine (Sigma-Aldrich, cat. A9165), 10 mM nicotinamide (Sigma-Aldrich, cat. N0636), 1X B-27 supplement (Thermo Fisher Scientific, cat. 17504044), 1X N-2 supplement (Thermo Fisher Scientific, cat. […]

[1] = second compound 0.0316 µM, first compound 0.0316 µM
[2] = second compound 0.0316 µM, first compound 0.1 µM
[3] = second compound 0.0316 µM, first compound 0.316 µM
[4] = second compound 0.0316 µM, first compound 1 µM
[5] = second compound 0.0316 µM, first compound 3.16 µM
[6] = second compound 0.0316 µM, first compound 10 µM
[7] = second compound 0.1 µM, first compound 0.0316 µM
[8] = second compound 0.1 µM, first compound 0.1 µM
[9] = second compound 0.1 µM, first compound 0.316 µM
[10] = second compound 0.1 µM, first compound 1 µM
[11] = second compound 0.1 µM, first compound 3.16 µM
[12] = second compound 0.1 µM, first compound 10 µM
[13] = second compound 0.316 µM, first compound 0.0316 µM
[14] = second compound 0.316 µM, first compound 0.1 µM
[15] = second compound 0.316 µM, first compound 0.316 µM
[16] = second compound 0.316 µM, first compound 1 µM
[17] = second compound 0.316 µM, first compound 3.16 µM
[18] = second compound 0.316 µM, first compound 10 µM
[19] = second compound 1 µM, first compound 0.0316 µM
[20] = second compound 1 µM, first compound 0.1 µM
[21] = second compound 1 µM, first compound 0.316 µM
[22] = second compound 1 µM, first compound 1 µM
[23] = second compound 1 µM, first compound 3.16 µM
[24] = second compound 1 µM, first compound 10 µM
[25] = second compound 3.16 µM, first compound 0.0316 µM
[26] = second compound 3.16 µM, first compound 0.1 µM
[27] = second compound 3.16 µM, first compound 0.316 µM
[28] = second compound 3.16 µM, first compound 1 µM
[29] = second compound 3.16 µM, first compound 3.16 µM
[30] = second compound 3.16 µM, first compound 10 µM
[31] = second compound 10 µM, first compound 0.0316 µM
[32] = second compound 10 µM, first compound 0.1 µM
[33] = second compound 10 µM, first compound 0.316 µM
[34] = second compound 10 µM, first compound 1 µM
[35] = second compound 10 µM, first compound 3.16 µM
[36] = second compound 10 µM, first compound 10 µM
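Further: spheroids exposed to compounds for 7 days before viability readout.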
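Wherever viability, T/C is given: luminescence signal used as surrogate for viable cell content; 100% = DMSO vehicle control viability.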

C=CC(=O)N1CCN(c2nc(=O)n(-c3c(C)ccnc3C(C)C)c3nc(-c4c(O)cccc4F)c(F)cc23)C(C)C1 (centres undefined) + COC1C(OC(N)=O)C(O)C(Oc2ccc3c(O)c(NC(=O)c4ccc(O)c(CC=C(C)C)c4)c(=O)oc3c2C)OC1(C)C
pIC50 (second compound 0.0316 µM): < 5.00 | pIC50 (second compound 0.1 µM): < 5.00 | pIC50 (second compound 0.316 µM): < 5.00 | pIC50 (second compound 1 µM): < 5.00 | pIC50 (second compound 3.16 µM): < 5.00 | pIC50 (second compound 10 µM): < 5.00 | viability, T/C [1]: 102% | viability, T/C [2]: 97.9% | viability, T/C [3]: 110% | viability, T/C [4]: 114% | viability, T/C [5]: 119% | viability, T/C [6]: 130% | viability, T/C [7]: 98.7% | viability, T/C [8]: 99.6% | viability, T/C [9]: 91.5% | viability, T/C [10]: 111% | viability, T/C [11]: 114% | viability, T/C [12]: 114% | viability, T/C [13]: 102% | viability, T/C [14]: 97% | viability, T/C [15]: 118% | viability, T/C [16]: 113% | viability, T/C [17]: 138% | viability, T/C [18]: 119% | viability, T/C [19]: 94.5% | viability, T/C [20]: 94% | viability, T/C [21]: 105% | viability, T/C [22]: 104% | viability, T/C [23]: 120% | viability, T/C [24]: 126% | viability, T/C [25]: 92.4% | viability, T/C [26]: 92.7% | viability, T/C [27]: 105% | viability, T/C [28]: 113% | viability, T/C [29]: 126% | viability, T/C [30]: 121% | viability, T/C [31]: 99.7% | viability, T/C [32]: 109% | viability, T/C [33]: 113% | viability, T/C [34]: 116% | viability, T/C [35]: 111% | viability, T/C [36]: 125%

COc1cccc2c1C(=O)c1c(O)c3c(c(O)c1C2=O)CC(O)(C(=O)CO)CC3OC1CC(N)C(O)C(C)O1 (centres undefined) + Cc1cccc(N(C)C(=O)C2C(O)CCN2c2nc(C)cc(C(F)(F)F)c2C#N)c1
pIC50 (second compound 0.0316 µM): 5.84 | pIC50 (second compound 0.1 µM): 5.85 | pIC50 (second compound 0.316 µM): 5.87 | pIC50 (second compound 1 µM): 5.87 | pIC50 (second compound 3.16 µM): 5.94 | pIC50 (second compound 10 µM): 6.20 | viability, T/C [1]: 87.6% | viability, T/C [2]: 83.7% | viability, T/C [3]: 66.1% | viability, T/C [4]: 71.8% | viability, T/C [5]: 2.96% | viability, T/C [6]: 2.02% | viability, T/C [7]: 92.2% | viability, T/C [8]: 82.5% | viability, T/C [9]: 66.9% | viability, T/C [10]: 68.6% | viability, T/C [11]: 4.68% | viability, T/C [12]: 2.44% | viability, T/C [13]: 96.4% | viability, T/C [14]: 75.1% | viability, T/C [15]: 72.1% | viability, T/C [16]: 66.1% | viability, T/C [17]: 4.5% | viability, T/C [18]: 2.19% | viability, T/C [19]: 95.8% | viability, T/C [20]: 69.7% | viability, T/C [21]: 71.9% | viability, T/C [22]: 66.4% | viability, T/C [23]: 3.11% | viability, T/C [24]: 1.52% | viability, T/C [25]: 91.1% | viability, T/C [26]: 83.5% | viability, T/C [27]: 71.9% | viability, T/C [28]: 57.1% | viability, T/C [29]: 2.19% | viability, T/C [30]: 1.66% | viability, T/C [31]: 84.8% | viability, T/C [32]: 73.3% | viability, T/C [33]: 80.3% | viability, T/C [34]: 30.8% | viability, T/C [35]: 0.94% | viability, T/C [36]: 1.6%
